Entries after “also recorded” stand apart in the source; their conditions may differ. Read-outs that look alike come from different tables or passages of the source.
Assays:
N2a cells = assay: Cell viability assay (MTT) in uninfected N2a cells; assay type: cell-based, mouse; conditions: for % Cell Viability (±SEM) 50 nM / % Cell Viability (±SEM) 200 nM / % Cell Viability (±SEM) 500 nM: seven days, N2a, MTT, versus untreated control; for % Cell Viability (±SEM) 500 nM / Cytotoxicity for uninfected neuroblastoma (N2a) cells, in words: 500 nM
Procedure: Uninfected N2a cells were identically seeded onto six-well plates containing MEM (3 mL, supplemented as above). […] Medium was exchanged, together with the compound, every three days. After seven days, thiazolyl blue (300 μL, MTT, 3-[4,5-dimethylthiazol-2-yl]-2,5-diphenyltetrazolium bromide, Sigma-Aldrich) in PBS (5 mgmL^−1), previously sterile filtered, was added. Cells were incubated at 37° C. for 5 h. The medium was removed, and DMSO (3 mL) was added and repeatedly aspirated to solubilize the converted dye.

PrP^Sc in ScGT1 cells = PrP^Sc in ScGT1 cells (Mus musculus, UniProt P04925); assay type: cell-based
MRC-5 fibroblast cells = conditions: cited from earlier work
neuroblastoma cells = conditions: mouse
[1] = patients, cited from earlier work

Chain of PrP^Sc in ScGT1 cells (P04925 23-230 limits assumed): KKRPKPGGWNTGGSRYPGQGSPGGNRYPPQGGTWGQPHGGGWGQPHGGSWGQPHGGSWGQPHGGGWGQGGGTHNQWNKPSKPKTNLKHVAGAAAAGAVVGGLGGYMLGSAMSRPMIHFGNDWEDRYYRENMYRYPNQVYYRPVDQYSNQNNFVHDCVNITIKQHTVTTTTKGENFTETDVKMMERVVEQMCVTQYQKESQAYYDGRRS

Row | Structure (SMILES) | % Cell Viability (±SEM) 50 nM (N2a cells) | % Cell Viability (±SEM) 200 nM (N2a cells) | % Cell Viability (±SEM) 500 nM (N2a cells) | further results
1 | COc1ccc2nc3cc(Cl)ccc3c(NCCCCNc3c4ccc(Cl)cc4nc4ccc(OC)cc34)c2c1 [Compound 1] | 100(±9) % | 100(±9) % | 100(±6) % | –
2 | COc1ccc2nc3cc(Cl)ccc3c(NCCCCCCNc3c4ccc(Cl)cc4nc4ccc(OC)cc34)c2c1 [Compound 2] | 90(±3) % | 96(±3) % | 82(±3) % | –
3 | COc1ccc2nc3cc(Cl)ccc3c(NCCCCCCCCNc3c4ccc(Cl)cc4nc4ccc(OC)cc34)c2c1 [Compound 3] | 100(±4) % | 100(±2) % | 97(±6) % | –
4 | COc1ccc2nc3cc(Cl)ccc3c(NCCCCCCCCCCNc3c4ccc(Cl)cc4nc4ccc(OC)cc34)c2c1 [Compound 4] | 99(±21) % | 95(±21) % | 90(±17) % | –
5 | COc1ccc2nc3cc(Cl)ccc3c(NCCNCCNc3c4ccc(Cl)cc4nc4ccc(OC)cc34)c2c1 [Compound 5] | 100(±20) % | 100(±9) % | 100(±18) % | –
6 | COc1ccc2nc3cc(Cl)ccc3c(NCCCNCCCNc3c4ccc(Cl)cc4nc4ccc(OC)cc34)c2c1 [Compound 6] | 98(±5) % | 33(±1) % | 1(±1) % | –
7 | COc1ccc2nc3cc(Cl)ccc3c(NCCNCCCNCCNc3c4ccc(Cl)cc4nc4ccc(OC)cc34)c2c1 [Compound 8] | 100(±13) % | 23(±10) % | 1(±1) % | –
8 | COc1ccc2nc3cc(Cl)ccc3c(NCCCNCCCNCCCNc3c4ccc(Cl)cc4nc4ccc(OC)cc34)c2c1.Cl [Compound 9] | 92(±7) % | 16(±7) % | 10(±2) % | –
9 | COc1ccc2nc3cc(Cl)ccc3c(NCCCN3CCN(CCCNc4c5ccc(Cl)cc5nc5ccc(OC)cc45)CC3)c2c1 [Compound 11, (6-chloro-2-methoxy-acridin-9-yl)-(3-{4-[3-(6-chloro-2-methoxy-acridin-9-ylamino)-propyl]-piperazin-1-yl}-propyl)-amine] | 94(±11) % | 89(±9) % | 79(±1) % | Cytotoxicity for uninfected neuroblastoma (N2a) cells, in words (N2a cells): not cytotoxic; reduction of PrP^Sc in ScGT1 cells, in words (PrP^Sc in ScGT1 cells; 100 nM to 500 nM, Western blot): dose-dependent manner; curing of ScGT1 cells after one-week incubation (PrP^Sc in ScGT1 cells; 0.5 μM or 1.0 μM, one week): could be cured of PrP^Sc; also recorded: absence of PK-resistant PrP; re-infection of cured ScGT1 cells with prion inoculum (PrP^Sc in ScGT1 cells; cured cells incubated with prion inoculum): could subsequently be re-infected; also recorded: decrease the capacity of ScGT1 cells to be re-infected; also recorded: PrP^Sc was detected; cytotoxicity to MRC-5 fibroblast cells versus non-constrained polyamine-linked bis-acridines (e.g., 7) (MRC-5 fibroblast cells): less cytotoxic
10 | COc1ccc2nc3cc(Cl)ccc3c(NCCOCCOCCNc3c4ccc(Cl)cc4nc4ccc(OC)cc34)c2c1 [Compound 13, N,N′-Bis-(6-chloro-2-methoxy-acridin-9-yl)-1,8-diamino-3,6-dioxaoctane] | 97(±8) % | 90(±9) % | 98(±11) % | Cytotoxicity for uninfected neuroblastoma (N2a) cells, in words (N2a cells): not cytotoxic
11 | COc1ccc2nc3cc(Cl)ccc3c(NCCCN(C)CCCNc3c4ccc(Cl)cc4nc4ccc(OC)cc34)c2c1 [Compound 14] | 73(±2) % | 59(±8) % | 1(±1) % | –
12 | CCCN(CCCCNc1c2ccc(Cl)cc2nc2ccc(OC)cc12)CCCNc1c2ccc(Cl)cc2nc2ccc(OC)cc12 [Compound 15, N-(6-Chloro-2-methoxy-acridin-9-yl)-N′-[3-(6-chloro-2-methoxy-acridin-9-ylamino)-propyl]-N′-propyl-butane-1,4-diamine] | 100(±5) % | 77(±4) % | 0(±1) % | –
13 | COc1ccc2nc3cc(Cl)ccc3c(NCCCCN(CCCNc3c4ccc(Cl)cc4nc4ccc(OC)cc34)C(=O)[C@H](C)N)c2c1 [Compound 16] | 100(±22) % | 59(±13) % | 0(±1) % | –
14 | COc1ccc2nc3cc(Cl)ccc3c(NCCCCN(CCCNc3c4ccc(Cl)cc4nc4ccc(OC)cc34)C(=O)C(C)NC(=O)OC(C)(C)C)c2c1 (stereo not drawn) [Compound 17, (1-{[4-(6-chloro-2-methoxy-acridin-9-ylamino)-butyl]-[3-(6-chloro-2-methoxy-acridin-9-ylamino)-propyl]-carbamoyl}-ethyl)-carbamic acid tert-butyl ester] | 98(±12) % | 85(±6) % | 84(±3) % | Cytotoxicity for uninfected neuroblastoma (N2a) cells, in words (N2a cells): not cytotoxic
15 | COc1ccc2nc3cc(Cl)ccc3c(NCCCCN(CCCNc3c4ccc(Cl)cc4nc4ccc(OC)cc34)C(=O)CNC(=O)[C@H](C)N)c2c1 [Compound 18] | 96(±4) % | 93(±1) % | 0(±1) % | –
16 | COc1ccc2nc3cc(Cl)ccc3c(NCCCCN(CCCNc3c4ccc(Cl)cc4nc4ccc(OC)cc34)C(=O)CNC(=O)[C@H](C)NC(=O)OC(C)(C)C)c2c1 [Compound 19] | 88(±18) % | 78(±13) % | 70(±12) % | –
17 | COc1ccc2nc3cc(Cl)ccc3c(NCCCCNCCCNc3c4ccc(Cl)cc4nc4ccc(OC)nc34)c2n1.Cl [Compound 20] | 100(±15) % | 100(±9) % | 88(±8) % | Cytotoxicity for uninfected neuroblastoma (N2a) cells, in words (N2a cells): nontoxic
18 | COc1ccc2nc3cc(Cl)ccc3c(NCCCCCCCCNc3c4ccc(Cl)cc4nc4ccc(OC)nc34)c2n1 [Compound 21, N,N′-Bis-(7-chloro-2-methoxy-benzo[b][1,5]naphthyridin-10-yl)-octane-1,8-diamine] | 95(±3) % | 100(±6) % | 96(±5) % | melting point: 114 to 115 °C
19 | CN(C)CCCN1c2ccccc2Sc2ccc(Cl)cc21 [chlorpromazine] | – | – | – | decrease in cell population (neuroblastoma cells): 50%
20 | CSc1ccc2c(c1)N(CCC1CCCCN1C)c1ccccc1S2 (stereo not drawn) [thioridazine] | – | – | – | brain concentration ([1]; 300 mg daily): 20 µM; brain concentration ([1]; daily oral dosage of 800 mg, post mortem brain samples): more than 80 μM
